SMILES strings stand for the structures. Where only a bound is given, the exact number is not on record here.

The target in assay [1] is Protein cereblon/Poly [ADP-ribose] polymerase 1 (Homo sapiens, UniProt P09874+Q96SW2). Nature of the assay: PROTAC activity at CRBN/PARP1 in human SW620 cells assessed as degradation of PARP1 measured after 24 hrs by Western blot analysis. The class given is cell-based. (A western blot detects proteins with antibodies after separation by electrophoresis.)
Assay [2] addresses T1, Protein cereblon/Wee1-like protein kinase (Homo sapiens) (UniProt P30291+Q96SW2). Nature of the assay: PROTAC activity at CRBN/Wee1 in human MV4-11 cells assessed as maximal degradation of Wee1 at 1 uM measured after 2 hrs by Western blot analysis relative to control. In kind it is cell-based.
The target of assay [3] is T2, von Hippel-Lindau disease tumor suppressor/SWI/SNF-related matrix-associated actin-dependent regulator of chromatin subfamily A member 2 (Homo sapiens, UniProt P51531+P40337). The experiment in a line: PROTAC activity at VHL/SMARCA2 in human RKO cells assessed as degradation of SMARCA2 incubated for 18 hrs by Western blot analysis. The class given is cell-based.
For assay [4], the target named is T3, von Hippel-Lindau disease tumor suppressor/SWI/SNF-related matrix-associated actin-dependent regulator of chromatin subfamily A member 4 (Homo sapiens, UniProt P51532+P40337). Nature of the assay: PROTAC activity at VHL/SMARCA4 in human RKO cells assessed as maximal degradation of SMARCA4 at 10 nM relative to control. In kind it is cell-based.
Target sequence in this assay (P40337 whole entry, looked up): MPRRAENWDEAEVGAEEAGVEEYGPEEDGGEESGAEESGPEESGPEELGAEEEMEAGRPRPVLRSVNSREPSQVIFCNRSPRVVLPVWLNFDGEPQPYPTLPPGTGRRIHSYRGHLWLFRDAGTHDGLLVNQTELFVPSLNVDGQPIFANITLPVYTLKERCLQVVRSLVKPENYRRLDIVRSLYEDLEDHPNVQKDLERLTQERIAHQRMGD
Target sequence in this assay (P51532 whole entry, looked up): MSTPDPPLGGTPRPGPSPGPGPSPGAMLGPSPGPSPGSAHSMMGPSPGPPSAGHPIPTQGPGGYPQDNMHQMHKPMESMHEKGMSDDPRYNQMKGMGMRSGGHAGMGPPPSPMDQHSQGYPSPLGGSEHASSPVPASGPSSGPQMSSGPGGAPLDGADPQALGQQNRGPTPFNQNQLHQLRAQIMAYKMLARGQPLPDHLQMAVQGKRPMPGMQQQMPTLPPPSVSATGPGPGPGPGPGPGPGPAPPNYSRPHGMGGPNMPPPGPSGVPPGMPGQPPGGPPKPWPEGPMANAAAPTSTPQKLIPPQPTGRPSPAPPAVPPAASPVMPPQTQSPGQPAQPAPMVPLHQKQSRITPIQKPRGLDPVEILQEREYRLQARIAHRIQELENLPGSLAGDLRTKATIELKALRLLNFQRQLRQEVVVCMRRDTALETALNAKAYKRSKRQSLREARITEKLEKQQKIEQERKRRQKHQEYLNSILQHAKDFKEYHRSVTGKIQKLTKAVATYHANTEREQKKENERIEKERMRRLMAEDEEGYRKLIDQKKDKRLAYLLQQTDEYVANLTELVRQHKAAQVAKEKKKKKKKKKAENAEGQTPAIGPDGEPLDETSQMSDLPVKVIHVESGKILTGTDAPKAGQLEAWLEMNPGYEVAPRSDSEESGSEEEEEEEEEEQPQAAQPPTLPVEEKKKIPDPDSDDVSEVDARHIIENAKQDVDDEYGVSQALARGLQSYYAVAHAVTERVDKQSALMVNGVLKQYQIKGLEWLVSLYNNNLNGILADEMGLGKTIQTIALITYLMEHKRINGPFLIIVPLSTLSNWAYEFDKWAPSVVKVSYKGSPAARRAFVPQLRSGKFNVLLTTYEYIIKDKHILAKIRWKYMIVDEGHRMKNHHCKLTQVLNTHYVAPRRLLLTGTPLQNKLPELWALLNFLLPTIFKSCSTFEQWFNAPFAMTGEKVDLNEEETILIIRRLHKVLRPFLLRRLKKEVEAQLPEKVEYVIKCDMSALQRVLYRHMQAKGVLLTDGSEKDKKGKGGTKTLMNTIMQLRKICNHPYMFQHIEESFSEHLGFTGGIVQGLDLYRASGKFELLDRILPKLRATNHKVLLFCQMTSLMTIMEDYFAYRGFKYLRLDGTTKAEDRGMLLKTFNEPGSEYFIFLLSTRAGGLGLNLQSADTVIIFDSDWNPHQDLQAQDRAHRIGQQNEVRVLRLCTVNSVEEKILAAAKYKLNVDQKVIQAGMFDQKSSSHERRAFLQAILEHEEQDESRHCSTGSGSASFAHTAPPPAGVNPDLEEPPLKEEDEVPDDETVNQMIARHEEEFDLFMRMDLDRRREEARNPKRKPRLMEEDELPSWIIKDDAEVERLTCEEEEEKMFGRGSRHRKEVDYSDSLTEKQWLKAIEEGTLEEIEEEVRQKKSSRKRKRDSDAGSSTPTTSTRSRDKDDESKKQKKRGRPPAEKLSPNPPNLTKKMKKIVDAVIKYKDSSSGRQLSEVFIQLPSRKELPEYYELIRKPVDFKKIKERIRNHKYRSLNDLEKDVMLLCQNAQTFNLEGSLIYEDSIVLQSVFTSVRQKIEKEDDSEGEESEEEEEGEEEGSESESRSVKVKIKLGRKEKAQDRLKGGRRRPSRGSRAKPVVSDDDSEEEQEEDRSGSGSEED
In assay [5] the target is Protein cereblon/Cyclin-dependent kinase 12 (Homo sapiens) (UniProt Q9NYV4+Q96SW2). The experiment in a line: PROTAC activity at CRBN/CDK12 in human HeLa cells assessed as maximal degradation of CDK12 at 1 uM measured after 24 hrs by Western blot analysis relative to control. The class given is cell-based.
Assay [6] concerns LoVo. Nature of the assay: Antitumor activity against human LoVo cells xenografted in BALB/c mouse assessed as tumor growth inhibition at 50 mg/kg, ip administered once daily for 14 days relative to control. In kind it is functional. As to conditions: 336 h, time 14 day, read-out: TGI. A general note: A xenograft is tissue or cells of one species grown in another, often human tumour cells in immunodeficient mice.

The target of assay [7] is T4, von Hippel-Lindau disease tumor suppressor/Serine/threonine-protein kinase ATR (Homo sapiens) (UniProt Q13535+P40337). Nature of the assay: PROTAC activity at […]/VHL in human LoVo cells assessed as maximum protein degradation at 5 uM measured after 24 hrs by immunoblot analysis relative to control. In kind it is cell-based.
Assay [8] has as its target T4, von Hippel-Lindau disease tumor suppressor/Serine/threonine-protein kinase ATR (Homo sapiens). The experiment in a line: PROTAC activity at […]/VHL in […] human HCT-116 cells assessed as maximum protein degradation at 5 uM measured after 24 hrs by immunoblot analysis relative to control. In kind it is cell-based.
The test system of assay [9] is LoVo. Nature of the assay: Antitumor activity against human LoVo cells xenografted in BALB/c mouse assessed as tumor growth inhibition at 25 mg/kg, ip administered once daily for 14 days relative to control. In kind it is functional. The note with it: 336 h, time 14 day, read-out: TGI.
Assay [10] addresses T2, von Hippel-Lindau disease tumor suppressor/SWI/SNF-related matrix-associated actin-dependent regulator of chromatin subfamily A member 2. The experiment in a line: PROTAC activity at VHL/SMARCA2 in human MV4-11 cells assessed as induction of SMARCA2 degradation at 10 uM by measuring maximal efficacy incubated for 20 hrs by Western blotting analysis relative to control. The class given is cell-based.

In the next assay the test system is MOLT-4. The experiment in a line: Antiproliferative activity against human MOLT-4 cells assessed as reduction in cell viability incubated for 72 hrs by CellTiter-Glo Luminescent assay. The class given is functional, cell-based. As to conditions: MOLT-4, 72 h. A general note: ATP-based viability assays read luminescence as a measure of living cells.
The target in assay [11] is T1, Protein cereblon/Wee1-like protein kinase (Homo sapiens). The experiment in a line: PROTAC activity at CRBN/Wee1 in human MV4-11 cells assessed as maximal degradation of Wee1 at 100 nM measured after 2 hrs by Western blot analysis relative to control. In kind it is cell-based.
In assay [12] the target is T3, von Hippel-Lindau disease tumor suppressor/SWI/SNF-related matrix-associated actin-dependent regulator of chromatin subfamily A member 4. The experiment in a line: PROTAC activity at VHL/SMARCA4 in human RKO cells assessed as degradation of SMARCA4. In kind it is cell-based.
Target sequence in this assay (P51532 whole entry): as the sequence (P51532 whole entry, looked up) above
Target sequence in this assay (P40337 whole entry): as the sequence (P40337 whole entry, looked up) above
Assay [13] addresses Protein cereblon/Bromodomain-containing protein 2 (Homo sapiens) (UniProt P25440+Q96SW2). The experiment in a line: PROTAC activity at CRBN/BRD2 in human MV4-11 cells assessed as maximal degradation of BRD2 protein level at 0.5 uM incubated for 4 hrs by Western blotting assay relative to control. In kind it is cell-based.
A further assay concerns MV4-11. The experiment in a line: Antitumor activity against human MV4-11 cells xenografted in BALB/c nude mouse assessed as tumor growth inhibition at 25 mg/kg, po administered once daily for 17 days relative to control. In kind it is functional. As to conditions: MV4-11, 408 h, time 17 day, read-out: TGI.

T1 sequence (P30291 whole entry, looked up): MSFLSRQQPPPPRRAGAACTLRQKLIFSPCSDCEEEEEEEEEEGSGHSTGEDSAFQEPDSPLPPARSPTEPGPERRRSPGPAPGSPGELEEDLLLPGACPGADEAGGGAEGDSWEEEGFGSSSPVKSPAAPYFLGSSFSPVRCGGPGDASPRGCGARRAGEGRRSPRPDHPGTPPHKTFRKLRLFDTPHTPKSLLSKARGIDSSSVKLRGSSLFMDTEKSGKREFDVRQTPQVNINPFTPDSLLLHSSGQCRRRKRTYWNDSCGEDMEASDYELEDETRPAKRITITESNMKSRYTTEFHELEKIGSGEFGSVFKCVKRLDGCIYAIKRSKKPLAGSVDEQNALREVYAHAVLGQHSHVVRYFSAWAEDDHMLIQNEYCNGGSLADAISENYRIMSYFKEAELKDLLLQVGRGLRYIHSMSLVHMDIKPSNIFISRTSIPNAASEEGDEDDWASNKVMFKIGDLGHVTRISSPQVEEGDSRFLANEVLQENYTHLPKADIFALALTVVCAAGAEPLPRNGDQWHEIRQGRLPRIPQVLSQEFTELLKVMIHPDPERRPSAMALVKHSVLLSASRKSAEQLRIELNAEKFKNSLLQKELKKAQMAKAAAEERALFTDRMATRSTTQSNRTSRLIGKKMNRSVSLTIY
T1 sequence (Q96SW2 whole entry, looked up): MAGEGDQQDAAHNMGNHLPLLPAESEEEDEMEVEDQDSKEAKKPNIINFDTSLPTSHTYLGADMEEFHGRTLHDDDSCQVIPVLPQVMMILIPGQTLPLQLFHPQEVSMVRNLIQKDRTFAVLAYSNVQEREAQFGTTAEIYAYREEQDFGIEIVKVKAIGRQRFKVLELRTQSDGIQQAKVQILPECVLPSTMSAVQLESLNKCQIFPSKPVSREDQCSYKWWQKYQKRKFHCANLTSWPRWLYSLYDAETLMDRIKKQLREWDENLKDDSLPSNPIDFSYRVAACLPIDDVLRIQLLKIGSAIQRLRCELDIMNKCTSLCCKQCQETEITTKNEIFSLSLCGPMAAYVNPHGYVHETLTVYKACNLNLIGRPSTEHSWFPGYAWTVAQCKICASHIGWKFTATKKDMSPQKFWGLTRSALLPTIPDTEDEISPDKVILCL
Protein cereblon/Poly [ADP-ribose] polymerase 1, sequence (P09874 whole entry): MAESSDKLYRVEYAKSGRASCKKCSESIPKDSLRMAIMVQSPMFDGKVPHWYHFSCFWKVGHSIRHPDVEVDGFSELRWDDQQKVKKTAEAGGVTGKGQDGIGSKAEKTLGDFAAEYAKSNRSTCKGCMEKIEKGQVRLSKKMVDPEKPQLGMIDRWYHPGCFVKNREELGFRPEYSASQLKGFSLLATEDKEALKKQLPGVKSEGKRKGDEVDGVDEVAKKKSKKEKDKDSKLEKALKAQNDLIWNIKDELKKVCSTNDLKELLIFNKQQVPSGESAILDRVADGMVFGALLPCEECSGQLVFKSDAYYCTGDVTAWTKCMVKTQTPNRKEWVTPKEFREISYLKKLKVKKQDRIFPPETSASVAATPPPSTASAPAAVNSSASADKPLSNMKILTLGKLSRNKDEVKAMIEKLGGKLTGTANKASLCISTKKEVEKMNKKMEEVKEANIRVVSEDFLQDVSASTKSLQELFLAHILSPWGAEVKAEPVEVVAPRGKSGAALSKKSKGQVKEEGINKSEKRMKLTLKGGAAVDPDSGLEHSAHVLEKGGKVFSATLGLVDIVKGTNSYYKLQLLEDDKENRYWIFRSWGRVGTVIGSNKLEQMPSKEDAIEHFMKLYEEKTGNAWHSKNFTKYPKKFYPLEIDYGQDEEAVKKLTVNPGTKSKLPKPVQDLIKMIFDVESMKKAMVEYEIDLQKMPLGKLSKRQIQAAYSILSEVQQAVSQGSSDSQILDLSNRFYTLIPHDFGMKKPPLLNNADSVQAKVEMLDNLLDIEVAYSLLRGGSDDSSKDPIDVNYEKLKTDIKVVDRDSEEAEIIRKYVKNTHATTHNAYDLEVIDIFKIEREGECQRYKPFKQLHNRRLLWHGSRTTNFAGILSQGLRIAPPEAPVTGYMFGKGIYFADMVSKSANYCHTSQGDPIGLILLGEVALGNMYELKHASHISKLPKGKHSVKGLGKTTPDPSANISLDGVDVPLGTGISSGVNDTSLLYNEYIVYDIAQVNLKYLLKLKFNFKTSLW
Protein cereblon/Poly [ADP-ribose] polymerase 1, sequence (Q96SW2 whole entry): as the sequence (Q96SW2 whole entry, looked up) above
Protein cereblon/Bromodomain-containing protein 2 (Homo sapiens), sequence (P25440 whole entry, looked up): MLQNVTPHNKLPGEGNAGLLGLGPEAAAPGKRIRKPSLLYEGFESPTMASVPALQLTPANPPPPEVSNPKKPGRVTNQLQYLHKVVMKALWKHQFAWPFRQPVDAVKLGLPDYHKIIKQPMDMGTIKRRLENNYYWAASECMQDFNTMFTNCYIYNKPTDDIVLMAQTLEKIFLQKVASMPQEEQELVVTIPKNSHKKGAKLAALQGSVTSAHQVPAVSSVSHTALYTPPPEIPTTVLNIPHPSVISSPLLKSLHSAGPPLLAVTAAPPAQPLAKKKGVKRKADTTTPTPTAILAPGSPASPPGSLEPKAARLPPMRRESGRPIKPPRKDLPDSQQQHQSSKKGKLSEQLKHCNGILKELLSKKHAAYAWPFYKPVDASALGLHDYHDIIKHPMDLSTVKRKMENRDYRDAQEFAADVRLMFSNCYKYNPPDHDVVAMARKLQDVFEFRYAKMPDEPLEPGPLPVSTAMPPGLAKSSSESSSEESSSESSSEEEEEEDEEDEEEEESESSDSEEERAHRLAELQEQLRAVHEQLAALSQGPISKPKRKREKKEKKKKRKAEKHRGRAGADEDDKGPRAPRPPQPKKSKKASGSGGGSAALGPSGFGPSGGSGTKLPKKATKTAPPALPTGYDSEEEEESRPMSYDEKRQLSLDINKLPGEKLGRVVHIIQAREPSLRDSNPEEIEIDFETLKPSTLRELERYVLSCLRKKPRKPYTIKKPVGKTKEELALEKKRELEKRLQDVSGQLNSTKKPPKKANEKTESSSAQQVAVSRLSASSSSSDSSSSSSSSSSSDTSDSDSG
Protein cereblon/Bromodomain-containing protein 2 (Homo sapiens), sequence (Q96SW2 whole entry, looked up): as the sequence (Q96SW2 whole entry, looked up) above

As a reminder, the DC50 is the concentration at which degradation of the target reaches its halfway point. As to `O=C(CCCCCCCCCCC(=O)c1cc(Cc2n[nH]c(=O)c3ccccc23)ccc1F)Cc1cccc2c1CN(C1CCC(=O)NC1=O)C2=O` (configuration not stated), the DC50 in assay [1] was determined as 5400 nM. As usually defined, the Emax is the maximal effect, on the per cent scale that the assay sets. In the case of `C=CCn1c(=O)c2cnc(Nc3ccc(N4CCN(CCCC(=O)N[C@H](C(=O)N5C[C@H](O)C[C@H]5C(=O)NCc5ccc(-c6scnc6C)cc5)C(C)(C)C)CC4)cc3)nc2n1-c1cccc(C(C)(C)O)n1`, the Emax in [2] is more than 70%. For the molecule `Cc1ncsc1-c1ccc([C@@H](CCCN2CCC(c3ccc4c(c3)n(C3CCCC3)c3nc(=O)c5c(Br)cccc5n43)CC2)NC(=O)[C@@H]2C[C@@H](O)CN2C(=O)[C@@H](NC(=O)C2(F)CC2)C(C)(C)C)cc1`, the DC50 in assay [3] came out at 2 nM. Further, in assay [4], the Emax is 77%. Regarding `C=CCn1c(=O)c2cnc(Nc3ccc(N4CCN(CCCC(=O)NCCOCCOCCNc5cccc6c5C(=O)N(C5CCC(=O)NC5=O)C6=O)CC4)cc3)nc2n1-c1cccc(C(C)(C)O)n1` (configuration not stated), the Emax in assay [5] was more than 80%. `C[C@H]1COCCN1c1cc(C2([S@](C)(=O)=NC(=O)CCc3cn(CCCCCCCC(=O)Nc4cccc5c4C(=O)N(C4CCC(=O)NC4=O)C5=O)nn3)CC2)nc(-c2ccnc3[nH]ccc23)n1` (some centres not stated): the inhibition in vivo at 50 mg/kg in the assay on LoVo [6] was 51.8%. Also, the Emax in assay [7] and in assay [8] was more than 80% each time. In addition, the inhibition in vivo at 25 mg/kg in the assay on LoVo [9] was determined as 35.9%.

As to `COc1ccc(C(=O)/C=C/C(=O)N2CCN(c3cc(-c4ccccc4O)nnc3N)CC2)cc1`, the Emax in [10] was more than 95%. By IC50 is commonly meant the midpoint of a concentration-inhibition curve. Consider `C=CCn1c(=O)c2cnc(Nc3ccc(N4CCN(CCCNc5cccc6c5C(=O)N(C5CCC(=O)NC5=O)C6=O)CC4)cc3)nc2n1-c1cccc(C(C)(C)O)n1` (configuration not stated), for which the IC50 in the assay with MOLT-4 worked out at 390 nM. For the same molecule, in [11], the Emax is 50%. `C=CCn1c(=O)c2cnc(Nc3ccc(N4CCN(C)CC4)cc3)nc2n1-c1cccc(C(C)(C)O)n1` [ADAVOSERTIB]: in the assay on MOLT-4, the IC50 worked out at 800 nM. Consider `Cc1ncsc1-c1ccc(CNC(=O)[C@@H]2C[C@@H](O)CN2C(=O)[C@@H](NC(=O)C2(F)CC2)C(C)(C)C)c(OCCCN2CCC(c3ccc4c(c3)n(C3CCCC3)c3nc(=O)c5c(Br)cccc5n43)CC2)c1`, for which the DC50 in assay [12] worked out at 78 nM. Further, the Emax in assay [4] stood at 46%.

In the case of `Nc1ncc(-c2ccc(C(=O)N3CCN(CCCCC(=O)Nc4cccc5c4C(=O)N(C4CCC(=O)NC4=O)C5=O)CC3)cc2)nc1C(=O)Nc1ccccc1` (configuration not stated), the Emax in assay [13] is more than 50%. Moreover, the inhibition in vivo at 25 mg/kg with MV4-11 is 57%.

For the origin of these results see ChEMBL document CHEMBL5543165, “Recent Progress in DNA Damage Response-Targeting PROTAC Degraders” (J Med Chem, 2024).
